The text below walks through data of publication PMC8213057, “Targeting ALK2: An Open Science Approach to Developing Therapeutics for the Treatment of Diffuse Intrinsic Pontine Glioma” (Journal of Medicinal Chemistry, 2020).

In one test the target is CK1a1 (Homo sapiens, UniProt P48729). The settings on record: 1 μM; Run 1, Run 2.
For a further test, the target named is JAK1 (Homo sapiens, UniProt P23458). The settings on record: 1 μM; Run 1, Run 2.
Another test has as its target NEK6 (Homo sapiens, UniProt Q9HC98). The settings on record: 1 μM; Run 1, Run 2.
The target in the next test is T1, TXK (Homo sapiens, UniProt P42681).
T1 sequence (P42681 1-527): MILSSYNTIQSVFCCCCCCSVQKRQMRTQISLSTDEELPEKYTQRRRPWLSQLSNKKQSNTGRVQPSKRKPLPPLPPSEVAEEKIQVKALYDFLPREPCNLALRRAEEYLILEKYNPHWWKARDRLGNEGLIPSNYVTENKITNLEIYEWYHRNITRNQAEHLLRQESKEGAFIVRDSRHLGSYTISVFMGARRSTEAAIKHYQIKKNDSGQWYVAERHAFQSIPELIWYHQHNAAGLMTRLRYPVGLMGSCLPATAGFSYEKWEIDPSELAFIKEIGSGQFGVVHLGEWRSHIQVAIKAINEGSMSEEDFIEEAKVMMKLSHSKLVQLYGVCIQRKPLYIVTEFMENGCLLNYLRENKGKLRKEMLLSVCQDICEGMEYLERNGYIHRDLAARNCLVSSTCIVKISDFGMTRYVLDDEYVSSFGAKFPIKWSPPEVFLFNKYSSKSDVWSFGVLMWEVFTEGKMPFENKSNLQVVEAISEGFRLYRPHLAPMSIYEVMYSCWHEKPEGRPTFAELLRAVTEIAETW
The settings on record: 1 μM; Run 1, Run 2.

In another test the target is T2, VRK1 (Homo sapiens, UniProt Q99986).
T2 sequence (Q99986 1-396): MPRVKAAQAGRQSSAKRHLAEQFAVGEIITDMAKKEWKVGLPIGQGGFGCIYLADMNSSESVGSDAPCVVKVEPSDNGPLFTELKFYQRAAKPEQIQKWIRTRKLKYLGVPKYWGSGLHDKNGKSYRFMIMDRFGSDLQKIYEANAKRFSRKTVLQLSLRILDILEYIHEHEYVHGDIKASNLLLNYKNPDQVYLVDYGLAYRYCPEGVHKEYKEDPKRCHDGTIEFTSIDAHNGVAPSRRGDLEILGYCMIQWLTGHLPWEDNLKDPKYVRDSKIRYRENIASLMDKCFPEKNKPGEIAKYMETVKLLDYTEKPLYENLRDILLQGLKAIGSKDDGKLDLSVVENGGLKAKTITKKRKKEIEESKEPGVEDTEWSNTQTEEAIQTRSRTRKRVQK
The settings on record: 1 μM; Run 1, Run 2.

In the next test the target is CDK2/cyclin E2 (Homo sapiens, UniProt P24941). Kind of test: biochemical. The settings on record: read-out: % enzyme activity, 1 μM; Run 1, Run 2.
In the next test the target is CDK7/cyclin H (Homo sapiens, UniProt P50613). As to the kind of experiment: biochemical. The settings on record: read-out: % enzyme activity, 1 μM; Run 1, Run 2.
Sequence of CDK7/cyclin H (P50613 whole entry): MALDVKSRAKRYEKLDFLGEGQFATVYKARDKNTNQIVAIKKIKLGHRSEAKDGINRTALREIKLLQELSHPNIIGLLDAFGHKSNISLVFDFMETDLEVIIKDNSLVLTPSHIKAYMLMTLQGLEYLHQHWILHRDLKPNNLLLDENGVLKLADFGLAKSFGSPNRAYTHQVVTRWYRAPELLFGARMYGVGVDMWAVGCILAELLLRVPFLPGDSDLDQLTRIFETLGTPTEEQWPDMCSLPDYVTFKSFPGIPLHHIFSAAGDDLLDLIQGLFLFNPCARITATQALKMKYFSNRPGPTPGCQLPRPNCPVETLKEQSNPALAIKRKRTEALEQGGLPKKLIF
Sequence of CDK7/cyclin H (P51946 whole entry partner): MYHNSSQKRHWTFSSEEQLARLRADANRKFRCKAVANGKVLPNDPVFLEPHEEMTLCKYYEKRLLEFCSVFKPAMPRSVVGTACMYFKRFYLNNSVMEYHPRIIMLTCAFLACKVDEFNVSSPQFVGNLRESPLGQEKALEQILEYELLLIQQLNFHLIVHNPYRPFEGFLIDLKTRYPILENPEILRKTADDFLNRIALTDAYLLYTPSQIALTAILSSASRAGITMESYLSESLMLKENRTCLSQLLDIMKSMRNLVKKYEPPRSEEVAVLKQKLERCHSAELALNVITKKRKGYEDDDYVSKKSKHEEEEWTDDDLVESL
Sequence of CDK7/cyclin H (P51948 whole entry partner): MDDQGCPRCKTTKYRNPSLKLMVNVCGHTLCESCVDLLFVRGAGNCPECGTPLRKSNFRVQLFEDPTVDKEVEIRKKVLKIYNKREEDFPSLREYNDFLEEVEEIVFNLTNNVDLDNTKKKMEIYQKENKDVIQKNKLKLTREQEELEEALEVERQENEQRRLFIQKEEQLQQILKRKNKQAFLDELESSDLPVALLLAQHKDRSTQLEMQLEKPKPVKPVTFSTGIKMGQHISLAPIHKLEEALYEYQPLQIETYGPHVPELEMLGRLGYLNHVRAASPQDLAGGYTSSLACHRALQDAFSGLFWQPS
The target in a further test is T3, IKKa/CHUK (Homo sapiens, UniProt O15111).
T3 sequence (O15111 1-745): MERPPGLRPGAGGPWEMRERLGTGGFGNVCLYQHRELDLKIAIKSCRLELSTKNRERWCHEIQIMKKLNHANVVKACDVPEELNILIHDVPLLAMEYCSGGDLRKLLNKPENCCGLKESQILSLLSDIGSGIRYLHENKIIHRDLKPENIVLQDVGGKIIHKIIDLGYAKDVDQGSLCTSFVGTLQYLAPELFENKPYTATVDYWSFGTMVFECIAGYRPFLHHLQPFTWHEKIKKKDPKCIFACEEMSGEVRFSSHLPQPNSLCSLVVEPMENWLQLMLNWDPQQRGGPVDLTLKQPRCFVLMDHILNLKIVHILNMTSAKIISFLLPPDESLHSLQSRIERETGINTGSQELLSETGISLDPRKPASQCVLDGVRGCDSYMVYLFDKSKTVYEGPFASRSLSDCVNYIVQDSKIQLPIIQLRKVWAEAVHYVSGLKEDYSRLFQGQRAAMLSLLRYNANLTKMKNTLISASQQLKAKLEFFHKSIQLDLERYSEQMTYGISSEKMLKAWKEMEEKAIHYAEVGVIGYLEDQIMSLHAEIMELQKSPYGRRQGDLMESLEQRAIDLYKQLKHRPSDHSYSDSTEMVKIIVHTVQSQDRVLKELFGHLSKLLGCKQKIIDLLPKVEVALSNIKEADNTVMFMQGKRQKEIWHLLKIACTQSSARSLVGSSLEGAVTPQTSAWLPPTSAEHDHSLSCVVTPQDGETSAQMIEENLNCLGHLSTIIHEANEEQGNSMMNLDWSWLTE
As to the kind of experiment: biochemical. The settings on record: read-out: % enzyme activity, 1 μM; Run 1, Run 2.

In a further test the target is P38b/MAPK11 (Homo sapiens, UniProt Q15759). Kind of test: biochemical. The settings on record: read-out: % enzyme activity, 1 μM; Run 1, Run 2.
Sequence of P38b/MAPK11 (Q15759 whole entry): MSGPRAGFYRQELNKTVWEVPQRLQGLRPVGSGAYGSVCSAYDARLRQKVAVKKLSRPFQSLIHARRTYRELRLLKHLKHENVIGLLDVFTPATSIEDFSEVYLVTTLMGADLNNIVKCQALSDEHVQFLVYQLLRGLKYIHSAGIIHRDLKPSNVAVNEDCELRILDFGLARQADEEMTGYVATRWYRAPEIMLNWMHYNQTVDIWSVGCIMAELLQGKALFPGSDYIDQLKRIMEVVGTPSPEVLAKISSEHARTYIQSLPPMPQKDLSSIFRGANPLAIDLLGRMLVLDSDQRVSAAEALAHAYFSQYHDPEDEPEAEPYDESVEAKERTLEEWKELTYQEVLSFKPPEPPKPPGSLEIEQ
A further test concerns the target T4, PRKX (Homo sapiens, UniProt P51817).
T4 sequence (P51817 1-358): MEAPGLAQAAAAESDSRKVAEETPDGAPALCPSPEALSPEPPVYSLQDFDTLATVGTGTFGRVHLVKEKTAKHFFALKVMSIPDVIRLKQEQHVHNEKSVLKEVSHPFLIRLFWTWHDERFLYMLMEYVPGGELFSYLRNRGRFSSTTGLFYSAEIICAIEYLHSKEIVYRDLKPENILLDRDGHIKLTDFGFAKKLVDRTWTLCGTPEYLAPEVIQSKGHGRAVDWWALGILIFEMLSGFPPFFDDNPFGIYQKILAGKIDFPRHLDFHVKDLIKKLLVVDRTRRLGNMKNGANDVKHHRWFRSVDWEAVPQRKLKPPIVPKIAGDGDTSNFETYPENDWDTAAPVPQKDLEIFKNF
As to the kind of experiment: biochemical. The settings on record: read-out: % enzyme activity, 1 μM; Run 1, Run 2.

Another test addresses STK33 (Homo sapiens, UniProt Q9BYT3). As to the kind of experiment: biochemical. The settings on record: read-out: % enzyme activity, 1 μM; Run 1, Run 2.

Sequence of NEK6 (Q9HC98 whole entry): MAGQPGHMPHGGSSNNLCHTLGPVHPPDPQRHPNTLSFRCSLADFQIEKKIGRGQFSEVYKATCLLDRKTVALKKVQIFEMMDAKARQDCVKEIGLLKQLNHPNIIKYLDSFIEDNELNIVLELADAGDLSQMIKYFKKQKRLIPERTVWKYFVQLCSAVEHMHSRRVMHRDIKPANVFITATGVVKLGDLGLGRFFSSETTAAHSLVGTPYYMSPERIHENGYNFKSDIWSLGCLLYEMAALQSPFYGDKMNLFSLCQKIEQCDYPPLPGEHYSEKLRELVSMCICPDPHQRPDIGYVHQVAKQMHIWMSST
Sequence of JAK1 (P23458 whole entry): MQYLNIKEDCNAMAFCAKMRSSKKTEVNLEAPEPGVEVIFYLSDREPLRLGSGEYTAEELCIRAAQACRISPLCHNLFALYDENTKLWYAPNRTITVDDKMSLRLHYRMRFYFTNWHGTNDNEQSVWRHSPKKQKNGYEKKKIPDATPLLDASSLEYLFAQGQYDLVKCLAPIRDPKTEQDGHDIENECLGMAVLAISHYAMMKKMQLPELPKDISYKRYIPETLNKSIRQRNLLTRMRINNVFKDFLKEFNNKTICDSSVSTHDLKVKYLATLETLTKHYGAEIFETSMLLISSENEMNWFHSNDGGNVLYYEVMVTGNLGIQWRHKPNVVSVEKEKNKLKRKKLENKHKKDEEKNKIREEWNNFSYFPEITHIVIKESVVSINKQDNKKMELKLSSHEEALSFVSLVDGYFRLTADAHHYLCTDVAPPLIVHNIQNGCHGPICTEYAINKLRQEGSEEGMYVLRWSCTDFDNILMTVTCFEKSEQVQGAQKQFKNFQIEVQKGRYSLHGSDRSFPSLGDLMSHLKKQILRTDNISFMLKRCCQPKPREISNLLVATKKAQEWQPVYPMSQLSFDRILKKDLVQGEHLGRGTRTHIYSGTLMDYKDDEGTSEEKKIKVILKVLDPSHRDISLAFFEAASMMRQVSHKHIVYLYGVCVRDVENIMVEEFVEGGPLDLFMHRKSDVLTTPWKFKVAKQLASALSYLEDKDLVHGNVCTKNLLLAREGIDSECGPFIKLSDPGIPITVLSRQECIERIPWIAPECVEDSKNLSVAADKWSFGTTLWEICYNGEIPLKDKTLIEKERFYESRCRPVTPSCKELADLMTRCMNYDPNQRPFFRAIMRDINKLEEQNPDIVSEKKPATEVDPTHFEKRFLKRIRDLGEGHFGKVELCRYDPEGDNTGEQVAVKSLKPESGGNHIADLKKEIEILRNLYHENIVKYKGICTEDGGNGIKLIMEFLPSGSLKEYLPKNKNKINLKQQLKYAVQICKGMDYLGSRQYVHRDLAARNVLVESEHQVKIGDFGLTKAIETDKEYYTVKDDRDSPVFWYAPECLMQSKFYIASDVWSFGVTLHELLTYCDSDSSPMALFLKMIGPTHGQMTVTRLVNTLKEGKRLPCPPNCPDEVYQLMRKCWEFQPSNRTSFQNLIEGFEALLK
Sequence of CK1a1 (P48729 whole entry): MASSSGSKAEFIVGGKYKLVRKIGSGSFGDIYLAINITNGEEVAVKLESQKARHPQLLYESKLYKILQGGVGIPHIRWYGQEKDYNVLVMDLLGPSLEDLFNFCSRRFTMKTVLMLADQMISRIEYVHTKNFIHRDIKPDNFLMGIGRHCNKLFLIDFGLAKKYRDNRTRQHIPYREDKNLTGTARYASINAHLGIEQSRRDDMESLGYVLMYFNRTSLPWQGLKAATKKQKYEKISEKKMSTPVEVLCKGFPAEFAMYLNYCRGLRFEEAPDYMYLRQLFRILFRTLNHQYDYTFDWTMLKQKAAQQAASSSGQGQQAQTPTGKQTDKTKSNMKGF
Sequence of STK33 (Q9BYT3 whole entry): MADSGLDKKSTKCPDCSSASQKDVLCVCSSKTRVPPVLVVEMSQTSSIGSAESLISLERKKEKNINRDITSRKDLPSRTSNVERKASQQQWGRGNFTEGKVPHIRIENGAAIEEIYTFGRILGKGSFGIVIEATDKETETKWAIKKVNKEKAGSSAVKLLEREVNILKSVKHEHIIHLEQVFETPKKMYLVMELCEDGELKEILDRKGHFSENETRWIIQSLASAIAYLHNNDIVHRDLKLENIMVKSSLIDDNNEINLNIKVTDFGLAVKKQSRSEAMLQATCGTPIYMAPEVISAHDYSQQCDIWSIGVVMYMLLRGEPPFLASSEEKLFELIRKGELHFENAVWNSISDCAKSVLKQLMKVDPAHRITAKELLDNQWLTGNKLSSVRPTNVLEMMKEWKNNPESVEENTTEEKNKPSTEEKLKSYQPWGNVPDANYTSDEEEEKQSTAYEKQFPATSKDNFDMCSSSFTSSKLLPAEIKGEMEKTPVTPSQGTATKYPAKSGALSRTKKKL

Regarding `COc1cc(-c2cncc(-c3ccc(N4CCN(C)CC4)cc3)c2C)cc(F)c1C(N)=O` [Compound 26a, 2-Fluoro-6-methoxy-4-(4-methyl-5-(4-(4-methylpiperazin-1-yl)phenyl)pyridin-3-yl)benzamide], the “% enzyme activity” value is given as 91.31% at CK1a1; 99.53% on JAK1; 98.81% at NEK6; 100.80% on TXK; 100.69% on VRK1. Also, the remaining activity at 1 µM on CDK2/cyclin E2 was found to be 108%; on CDK7/cyclin H it was 97%; at IKKa/CHUK it was 83.3%; on P38b/MAPK11, 92.3%; at PRKX, 99.9%; on STK33 it was 91%.
As for `COc1cc(-c2cncc(-c3ccc(N4C[C@@H](C)N(C)[C@@H](C)C4)cc3)c2C)cc(F)c1C(N)=O` [Compound 26c, 2-Fluoro-6-methoxy-4-(4-methyl-5-(4-((3R,5S)-3,4,5-trimethylpiperazin-1-yl)phenyl)pyridin-3-yl)benzamide], the “% enzyme activity” value amounted to 99.44% at CK1a1; 99.07% on JAK1; 103.36% on NEK6; 95.85% on TXK; 98.74% at VRK1. Besides, the remaining activity at 1 µM at CDK2/cyclin E2 came out at 95%; at CDK7/cyclin H, 96.1%; on IKKa/CHUK, 87.4%; on P38b/MAPK11 it was 95.5%; on PRKX, 91.3%; at STK33, 97.4%.
